{"source": "patent US20020146411A1", "about": "“Anticoagulant agents useful in treatment of thrombosis” (SmithKline Beecham Corporation, priority 1996, published 2002)", "key": {"[1]": {"system": "rat carotid artery thrombosis", "experiment": "Rat carotid artery thrombosis model (FeCl3 injury), Example 3", "type": "in vivo", "from_the_text": "In order to evaluate the efficacy of anti-Factor IX antibodies in prevention of arterial thrombosis, the rat carotid artery thrombosis model as reported by Schumacher et al. in J. Cardio. Pharm. 22, 526-533 (1993) was adapted. This model consists of segmental injury to the carotid endothelium by oxygen radicals generated by FeCl3 solution applied on the surface of the carotid artery.\nIn brief, rats were anesthetized with pentobarbitone sodium, the jugular vein cannulated for intravenous injections and the left femoral artery cannulated for blood pressure and heart rate monitoring. The carotid artery was isolated by aseptic technique via a surgical incision in the neck and equipped with a magnetic flow probe for blood flow measurement. After a period of stabilization, baseline parameters were established for the following variables: carotid blood flow, arterial pressure, heart rate, activated partial thromboplastin time (aPTT) and prothrombin time (PT). Thereafter, a premeasured Whatman filter paper soaked in 50% FeCl3 solution was placed on the carotid artery for 15 minutes for complete injury of the underlying endothelial cells. After removal of the FeCl3 soaked paper, the experiment was followed to completion over 60 minutes. At the end of the experiment, the carotid thrombus was extracted from the carotid artery and weighed.\nAll agents were administered 15 minutes prior to the onset of carotid injury. The following treatments were examined and compared to the Factor IX mAb BC2.\n1. Heparin: 15, 30, 60 or 120 U/kg bolus, followed by infusion of 0.5, 1, 2 or 4 U/kg/min, respectively over 60 minutes\n2. Acetylsalicylic acid (ASA, aspirin): 5 mg/kg bolus\n3. Anti-Factor IX mAb BC2: 1, 3 or 6 mg/kg bolus, followed by infusion 0.3, 1, or 2 ug/kg/min, respectively over 60 minutes\n4. Heparin: 30U/kg bolus+lU/kg/min+ASA at 5 mg/kg\n5. Anti-Factor IX mAb BC2: 1 mg/kg+0.3 ug/kg/min+ASA at 5 mg/kg"}, "BC2 antibody": {"system": "BC2 antibody", "experiment": "BiaCore binding of Factor IX/Factor VII constructs to immobilized BC2", "settings": "for Degree of Binding to BC2: 200 nM construct, 25 mM MOPS pH 7.4, 0.15 M NaCl, 5 mM CaCl2", "method": "A library of chimeric constructs composed of sequences of Factor IX spliced into the framework of the homologous protein Factor VII was constructed and used to map the epitope for the Factor IX BC2 mAb. See Cheung et al., Thromb. Res. 80, 419-427 (1995). Binding was measured using a BiaCore 2000 surface plasmon resonance device. The BC2 antibody was coupled directly to the chip using the NHS/EDC reaction. Binding was measured by 2 min of contact time at 20 uL/min with 200 nM of each of the given constructs in 25 mM MOPS, pH 7.4, 0.15 M NaCl, 5 mM CaCl2. Dissociation was monitored for 3 min using the same buffer with no protein. No binding was detected to the wild type construct in the presence of 50 mM EDTA."}}, "note": "Entries after “also recorded” stand apart in the source; their conditions may differ."}
{"molecule": "CC(=O)Oc1ccccc1C(=O)O", "note": "[ASA, Acetylsalicylic acid, reference compound]", "values": [{"measurement": "effect on carotid artery occlusion (FIG. 6)", "setting": "[1]", "value": "only a minor effect"}, {"measurement": "effect on thrombus weight (FIG. 7)", "setting": "[1]", "value": "only a partial effect"}, {"measurement": "effect on aPTT at 60 minutes (FIG. 4)", "setting": "[1]; regimens of b146-b150, given 15 minutes before injury", "value": "did not significantly increase aPTT"}]}
{"molecule": "IX K5A: Factor IX having a lysine to alanine substitution at residue 5", "values": [{"measurement": "Degree of Binding to BC2", "setting": "BC2 antibody", "value": "exhibit binding to BC2; also recorded: Binds"}]}
{"molecule": "Plasma IXa: plasma Factor IXa, wild type Factor IX", "values": [{"measurement": "Degree of Binding to BC2", "setting": "BC2 antibody", "value": "Binds"}]}
{"molecule": "Plasma VII: plasma Factor VII", "values": [{"measurement": "Degree of Binding to BC2", "setting": "BC2 antibody", "value": "No Binding"}]}
{"molecule": "VII gla (IX 3-6)/IX: chimeric Factor VII/Factor IX construct", "values": [{"measurement": "Degree of Binding to BC2", "setting": "BC2 antibody", "value": "Very Low Binding"}]}
{"molecule": "VII gla (IX 3-11)/IX: residues 3-11 of Factor IX gla domain within the Factor VII gla domain", "values": [{"measurement": "Degree of Binding to BC2", "setting": "BC2 antibody", "value": "exhibit binding to BC2; also recorded: equivalent to wild type Factor IX; also recorded: Binds"}]}
{"molecule": "VII gla (IX 9-11)/IX: chimeric Factor VII/Factor IX construct", "values": [{"measurement": "Degree of Binding to BC2", "setting": "BC2 antibody", "value": "Very Low Binding"}]}
{"molecule": "VII gla/IX: chimeric Factor VII/Factor IX construct", "values": [{"measurement": "Degree of Binding to BC2", "setting": "BC2 antibody", "value": "No Binding"}]}
{"molecule": "r-IX: recombinant wild type Factor IX", "values": [{"measurement": "Degree of Binding to BC2", "setting": "BC2 antibody", "value": "Binds"}]}
{"molecule": "wild type construct: wild type Factor IX construct used in BC2 epitope mapping", "values": [{"measurement": "binding to BC2 in the presence of EDTA", "setting": "BC2 antibody; 50 mM EDTA", "value": "No binding"}]}
